Source: PubChem BioAssay (NCI)
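These data come from cells grown in 96-well plates and exposed to compound for 48 hours at five concentrations. TGI is the concentration that stops growth completely.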

Legend:
Experiment in all cases: NCI anticancer screen, dose series, 48 h
[1] = system: 786-0 renal
[2] = system: A498 renal
[3] = system: A549 NSCLC
[4] = system: ACHN renal
[5] = system: CAKI-1 renal
[6] = system: CCRF-CEM leukemia
[7] = system: COLO 205 colon
[8] = system: DLD-1 colon
[9] = system: DMS 114 small cell lung
[10] = system: DMS 273 small cell lung
[11] = system: EKVX NSCLC
[12] = system: HCC-2998 colon
[13] = system: HCT-116 colon
[14] = system: HCT-15 colon
[15] = system: HL-60(TB) leukemia
[16] = system: HOP-18 NSCLC
[17] = system: HOP-62 NSCLC
[18] = system: HOP-92 NSCLC
[19] = system: HT29 colon
[20] = system: IGROV1 ovarian
[21] = system: K-562 leukemia
[22] = system: KM12 colon
[23] = system: KM20L2 colon
[24] = system: LOX IMVI melanoma
[25] = system: LXFL 529 NSCLC
[26] = system: M14 melanoma
[27] = system: M19-MEL melanoma
[28] = system: MALME-3M melanoma
[29] = system: MOLT-4 leukemia
[30] = system: NCI-H226 lung
[31] = system: NCI-H23 lung
[32] = system: NCI-H460 lung
[33] = system: NCI-H522 lung
[34] = system: OVCAR-3 ovarian
[35] = system: OVCAR-4 ovarian
[36] = system: OVCAR-5 ovarian
[37] = system: OVCAR-8 ovarian
[38] = system: RPMI-8226 leukemia
[39] = system: RXF 393 renal
[40] = system: SF-268 CNS
[41] = system: SF-295 CNS
[42] = system: SF-539 CNS
[43] = system: SK-MEL-2 melanoma
[44] = system: SK-MEL-28 melanoma
[45] = system: SK-MEL-5 melanoma
[46] = system: SK-OV-3 ovarian
[47] = system: SN12C renal
[48] = system: SNB-19 CNS
[49] = system: SNB-75 CNS
[50] = system: SNB-78 CNS
[51] = system: SR leukemia
[52] = system: SW-620 colon
[53] = system: TK-10 renal
[54] = system: U251 CNS
[55] = system: UACC-257 melanoma
[56] = system: UACC-62 melanoma
[57] = system: UO-31 renal
[58] = system: XF 498 CNS
[59] = system: RXF-631 renal

For [N-]=[N+]=Nc1ncnc2c1sc(=S)n2-c1ccccc1, the TGI [1] was > 100 µM, the TGI [2] was > 100 µM and the TGI [3] was > 100 µM. The TGI [4] was > 100 µM, the TGI [5] was > 100 µM and the TGI [6] was > 100 µM. The TGI [7] was > 100 µM, the TGI [8] was > 100 µM and the TGI [9] was > 100 µM. The TGI [10] was > 100 µM, the TGI [11] was > 100 µM and the TGI [12] was > 100 µM. For the same molecule, the TGI [13] was > 100 µM, the TGI [14] was > 100 µM and the TGI [15] was > 100 µM. The TGI [16] was > 100 µM, the TGI [17] was 52.7 µM and the TGI [18] was > 100 µM. For the same molecule, the TGI [19] was > 100 µM, the TGI [20] was > 100 µM and the TGI [21] was > 100 µM. For the same molecule, the TGI [22] was > 100 µM, the TGI [23] was > 100 µM and the TGI [24] was > 100 µM. The TGI [25] was > 100 µM, the TGI [26] was > 100 µM and the TGI [27] was > 100 µM. The TGI [28] was > 100 µM, the TGI [29] was > 100 µM and the TGI [30] was > 100 µM. The TGI [31] was > 100 µM, the TGI [32] was > 100 µM and the TGI [33] was > 100 µM. For the same molecule, the TGI [34] was > 100 µM, the TGI [35] was > 100 µM and the TGI [36] was > 100 µM. For the same molecule, the TGI [37] was > 100 µM, the TGI [38] was > 100 µM and the TGI [39] was > 100 µM. For the same molecule, the TGI [40] was > 100 µM, the TGI [41] was > 100 µM and the TGI [42] was > 100 µM. For the same molecule, the TGI [43] was > 100 µM, the TGI [44] was > 100 µM and the TGI [45] was > 100 µM. The TGI [46] was > 100 µM, the TGI [47] was > 100 µM and the TGI [48] was > 100 µM. The TGI [49] was > 100 µM, the TGI [50] was > 100 µM and the TGI [51] was > 100 µM. The TGI [52] was > 100 µM, the TGI [53] was > 100 µM and the TGI [54] was > 100 µM. For the same molecule, the TGI [55] was > 100 µM, the TGI [56] was > 100 µM and the TGI [57] was > 100 µM. For the same molecule, the TGI [58] was > 100 µM.

In the case of N#CNC(=NCc1ccccc1)NCc1ccccc1, the TGI [1] is reported as > 100 µM, the TGI [2] is reported as > 100 µM and the TGI [3] is reported as > 100 µM. For the same molecule, the TGI [4] was > 100 µM, the TGI [5] was > 100 µM and the TGI [6] was > 100 µM. For the same molecule, the TGI [7] was > 57.3 µM, the TGI [8] was > 71 µM and the TGI [9] was > 53.4 µM. The TGI [10] was > 56 µM, the TGI [11] was > 100 µM and the TGI [12] was > 100 µM. For the same molecule, the TGI [13] was 33.6 µM, the TGI [14] was > 55.8 µM and the TGI [15] was > 100 µM. The TGI [16] was > 100 µM, the TGI [17] was > 100 µM and the TGI [18] was > 100 µM. The TGI [19] was > 100 µM, the TGI [20] was > 100 µM and the TGI [21] was > 100 µM. The TGI [22] was > 100 µM, the TGI [23] was > 100 µM and the TGI [24] was > 100 µM. The TGI [25] was > 100 µM, the TGI [26] was > 100 µM and the TGI [27] was > 96.3 µM. For the same molecule, the TGI [28] was > 100 µM, the TGI [29] was > 100 µM and the TGI [30] was > 100 µM. For the same molecule, the TGI [31] was > 100 µM, the TGI [32] was > 100 µM and the TGI [33] was > 100 µM. For the same molecule, the TGI [34] was > 100 µM, the TGI [35] was > 100 µM and the TGI [36] was > 100 µM. The TGI [37] was > 100 µM, the TGI [38] was > 100 µM and the TGI [39] was > 89 µM. The TGI [40] was 48.6 µM, the TGI [41] was > 100 µM and the TGI [42] was > 100 µM. For the same molecule, the TGI [43] was > 100 µM, the TGI [44] was > 100 µM and the TGI [45] was > 100 µM. For the same molecule, the TGI [46] was > 100 µM, the TGI [47] was > 100 µM and the TGI [48] was > 100 µM. The TGI [49] was > 100 µM, the TGI [50] was > 100 µM and the TGI [51] was 69 µM. For the same molecule, the TGI [52] was > 62.7 µM, the TGI [53] was > 100 µM and the TGI [54] was > 70.7 µM. The TGI [55] was > 100 µM, the TGI [56] was > 100 µM and the TGI [57] was > 100 µM. The TGI [58] was > 100 µM.

In the case of CN(C)[C@@H]1C(=O)C(C(=O)NCN2CCN(C(=N)N=C(N)N)CC2)=C(O)[C@@]2(O)C(=O)C3=C(O)c4c(O)cccc4[C@@](C)(O)[C@H]3C[C@@H]12, the TGI [2] is reported as 4.88 µM, the TGI [4] is reported as > 100 µM and the TGI [5] is reported as > 100 µM. For the same molecule, the TGI [6] was > 100 µM, the TGI [7] was 14.1 µM and the TGI [8] was 19.6 µM. It also gave a TGI [10] of 0.922 µM, a TGI [11] of 0.624 µM and a TGI [13] of 17.8 µM. For the same molecule, the TGI [14] was 12.2 µM, the TGI [17] was 3.99 µM and the TGI [18] was 0.635 µM. It also gave a TGI [19] of 16.7 µM, a TGI [20] of 22 µM and a TGI [21] of 10.5 µM. For the same molecule, the TGI [22] was 16.9 µM, the TGI [23] was 11.6 µM and the TGI [24] was 2.04 µM. It also gave a TGI [25] of 11.1 µM, a TGI [26] of 1.14 µM and a TGI [27] of 2.28 µM. It also gave a TGI [28] of 0.566 µM, a TGI [29] of 0.349 µM and a TGI [31] of 0.33 µM. It also gave a TGI [32] of 20.2 µM, a TGI [33] of 0.143 µM and a TGI [34] of 34.8 µM. It also gave a TGI [36] of 0.709 µM, a TGI [37] of 11.2 µM and a TGI [38] of 14.7 µM. It also gave a TGI [39] of 0.245 µM, a TGI [59] of 0.763 µM and a TGI [41] of 6.82 µM. For the same molecule, the TGI [42] was 0.415 µM, the TGI [43] was 0.255 µM and the TGI [44] was 0.541 µM. For the same molecule, the TGI [45] was 0.431 µM, the TGI [46] was 15.8 µM and the TGI [47] was 15.1 µM. For the same molecule, the TGI [48] was 15.9 µM, the TGI [49] was 0.338 µM and the TGI [50] was 0.471 µM. It also gave a TGI [51] of 2.3 µM, a TGI [52] of 11 µM and a TGI [53] of 14.8 µM. It also gave a TGI [54] of 0.809 µM, a TGI [55] of 6.29 µM and a TGI [57] of 0.982 µM.
